Source: patent US6140335A, “Use of mizolastine for treating inflammatory diseases associated with 5-lipoxygenase” (Sanofi-Synthelabo, priority 1997, dated 2000)
pIC50: −log10 of the molar value.

Experiments:
[1] = biological target: T1, 5-LO isolated from commercial HL60 cells (Homo sapiens, UniProt P09917); test: Inhibition of 5-LO in Man (HL60 5-LO); assay type: biochemical; settings: 5-LO from HL60 cells; arachidonic acid 0.4 μM; 10 min at room temperature; 5-HETE by RIA; read-out: inhibitory concentration (IC50)
T1 construct: 5-LO isolated from commercial HL60 cells; endogenous in cells; host or cells: HL60
T1 sequence (P09917 1-674): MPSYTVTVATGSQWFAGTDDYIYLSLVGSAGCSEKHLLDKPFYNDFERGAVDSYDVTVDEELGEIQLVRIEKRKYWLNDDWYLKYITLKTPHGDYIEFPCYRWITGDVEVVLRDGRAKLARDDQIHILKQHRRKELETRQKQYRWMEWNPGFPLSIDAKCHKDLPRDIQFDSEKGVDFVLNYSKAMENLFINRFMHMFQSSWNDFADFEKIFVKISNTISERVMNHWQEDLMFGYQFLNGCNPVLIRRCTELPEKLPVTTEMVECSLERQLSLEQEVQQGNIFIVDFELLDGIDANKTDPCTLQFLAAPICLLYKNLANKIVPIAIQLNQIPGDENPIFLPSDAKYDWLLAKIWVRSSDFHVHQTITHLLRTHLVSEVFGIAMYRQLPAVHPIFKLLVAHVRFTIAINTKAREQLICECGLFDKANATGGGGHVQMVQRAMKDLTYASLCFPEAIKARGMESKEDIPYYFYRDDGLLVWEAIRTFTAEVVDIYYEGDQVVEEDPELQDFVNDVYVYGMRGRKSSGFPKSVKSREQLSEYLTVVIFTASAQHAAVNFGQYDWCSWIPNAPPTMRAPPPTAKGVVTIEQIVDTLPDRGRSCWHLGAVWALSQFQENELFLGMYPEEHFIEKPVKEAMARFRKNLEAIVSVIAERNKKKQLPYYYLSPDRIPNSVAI
Description: Mizolastine was tested on 5-LO isolated from commercial HL60 cells. The mizolastine is incubated for 10 minutes at room temperature in the presence of arachidonic acid (0.4 μM) and 5-LO. The experiment is carried out simultaneously in the presence of nordihydrogualaretic acid as reference product. The amount of 5-HETE formed is determined by RIA (Coffrey et al., J. Biol. Chem., 267-270, 1992).

[2] = system: rat rectocolitis induced by trinitrobenzenesulphonic acid (TNBS); test: In vivo activity in a model of inflammation of experimental colitis in rats (TNBS); settings: 3 mg/kg orally one hour before and one day after TNBS, after 3 days, significant
Description: Mizolastine was studied in a model of rat rectocolitis induced by trinitrobenzenesulphonic acid (TNBS), according to the method described by Morris et al. (Gastroenterology, 96, 795-803, 1989).
The mizolastine is given orally (3 mg/kg) one hour before and one day after the instillation of TNBS (40 mg/kg in 50% ethanol) into the distal part of the colon. After 3 days, measurement of the macroscopic index of the damage, of the oedema/hypertrophy (weight of tissues) and of the myeloperoxidase activity, as a measure of the infiltration of the neutrophils, is carried out. Mizolastine imparts a significant reduction in the damage, in the oedema/hypertrophy (weight of tissues) and in the myeloperoxidase activity of 67%, 57% and 66% respectively at 3 mg/kg.

[3] = system: inflammatory oedema of rat limbs induced by the injection of AA; test: In vivo activity in a model of inflammation of rat limbs (oedema by injection of AA); settings: 0.3 mg/kg orally 2 hours before AA injection; after 4 hours; plethysmography
Description: a) inflammation by injection of AA
Inflammatory oedema of rat limbs induced by the injection of AA is produced and evaluated according to the method of Di Martino et al. (Agents and actions, 21, 303-305, 1987) except that the AA concentration used is 0.3% (v/v).
The mizolastine is given orally 2 hours before the injection of AA. An AA solution, prepared at the time of use in a buffer solution (0.1 ml; 0.2 M carbonate; pH=11.2), is injected into the subplantar part of a rat's right hind limb.
The volume of the inflammatory reaction is measured by plethysmography after 1, 2, 3 and 4 hours.

[4] = biological target: T2, 5-LO obtained from a preparation of rat leukaemic basophil cells (RBL-1) (Rattus norvegicus, UniProt P12527); test: Inhibition of 5-LO in Rats (RBL-1 preparation); assay type: biochemical; settings: rat 5-LO (RBL-1); linoleic acid; 5 min preincubation, 8 min at room temperature; absorption at 234 nm; read-out: inhibitory concentration (IC50)
T2 construct: 5-LO obtained from a preparation of rat leukaemic basophil cells (RBL-1); endogenous in cells; host or cells: RBL-1 (rat leukaemic basophil cells)
T2 sequence (P12527 1-673): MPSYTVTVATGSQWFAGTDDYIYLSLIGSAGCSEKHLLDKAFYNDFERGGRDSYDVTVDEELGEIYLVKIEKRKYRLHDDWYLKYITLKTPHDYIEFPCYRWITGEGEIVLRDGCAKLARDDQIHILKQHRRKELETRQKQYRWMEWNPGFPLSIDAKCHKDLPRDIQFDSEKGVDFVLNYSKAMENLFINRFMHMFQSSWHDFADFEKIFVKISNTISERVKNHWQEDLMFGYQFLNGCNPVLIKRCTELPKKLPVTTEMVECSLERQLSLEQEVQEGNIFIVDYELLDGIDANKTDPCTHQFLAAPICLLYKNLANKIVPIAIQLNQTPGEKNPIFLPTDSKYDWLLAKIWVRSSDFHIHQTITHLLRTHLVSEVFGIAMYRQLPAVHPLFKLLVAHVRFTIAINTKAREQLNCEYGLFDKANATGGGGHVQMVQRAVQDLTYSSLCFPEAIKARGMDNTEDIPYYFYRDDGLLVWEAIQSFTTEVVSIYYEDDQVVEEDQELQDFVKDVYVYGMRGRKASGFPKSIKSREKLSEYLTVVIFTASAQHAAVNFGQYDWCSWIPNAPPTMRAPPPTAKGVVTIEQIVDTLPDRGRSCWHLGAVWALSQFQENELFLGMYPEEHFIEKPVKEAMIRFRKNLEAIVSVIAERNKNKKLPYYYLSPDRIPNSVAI
Description: The tests were carried out according to the procedure described by R. W. Egan and P. H. Gale in J. Biol. Chem., 260, 1154-1159, 1985, with 5-LO obtained from a preparation of rat leukaemic basophil cells (RBL-1). Mizolastine is incubated with the enzyme for 5 minutes at room temperature and the reaction is initiated by addition of linoleic acid. After incubating for 8 minutes at room temperature, the reaction is stopped by addition of sodium hydroxide and the absorption is read at 234 nm in order to determine the level of 5-HETE.

For `CN(c1nccc(O)n1)C1CCN(c2nc3ccccc3n2Cc2ccc(F)cc2)CC1` [mizolastine, 2-[[1-[1-[(4-fluorophenyl)methyl]-1H-benzimidazol-2-yl]-4-piperidyl]methylamino]-4-pyrimidinol], the pIC50 [1] was 4.80, the “reduction in the myeloperoxidase activity” value ([2]; infiltration of neutrophils) was 66% and the “reduction in the damage (macroscopic index)” value [2] was 67%. The “reduction in the oedema/hypertrophy (weight of tissues)” value [2] was 57%, the “inhibition, relative to the control, of the inflammation induced” value [3] was 55% and the pIC50 [4] was 5.34.
